Where no end group is shown, it is not given here. [ ]: non-standard residue; d: D form. Cha = N[C@@H](CC1CCCCC1)C(=O)O
What was measured:
HLA A or B Allele = assay type: cell-based, human; conditions: for HLA A or B Allele Specificity: and subtypes where given
[1] = tested on: peptide-sensitized targets; test: single component lipid-HTL-CTL vaccine in transgenic HLA A2.1 mice, peptide-sensitized targets; assay type: in vivo, mouse; conditions: for lysis of p53149-157 sensitized targets by spleen cells of immunized mice / lysis of pp65495-503 peptide sensitized targets by spleen cells of immunized mice: 100 nmoles s.c. in 25% DMSO/PBS with 2.5% hexafluoroisopropanol
Experimental: (§1) Molecule A (SEQ ID NO:37) is a vaccine that has the capability of working in mice and humans, whereas molecule B (SEQ ID NO:38) should only be functional in mice. One hundred nanomoles of each of these vaccine peptides in 25% dimethysulfoxide in phosphate buffered saline with 2.5% hexafluoroisopropanol were injected s.c. into separate transgenic HLA A2.1 mice.
(§2) The methods referred to in Examples 9 and 10 were used to derive spleen cell populations containing cells which were specific against pp65 and HCMV. The spleen cells from immunized mice were tested for recognition and cytolysis against specific and non-specific peptide-sensitized targets, HCMV infected and non-infected HLA A*0201 and HLA-mismatched fibroblast targets. […] This stimulative effect of the booster is in agreement with B. Livingston et al., J. Immunol. 159:1383–1392 (1997)).

[2] = tested on: HCMV infected and non-infected HLA A*0201 and HLA-mismatched fibroblast targets; test: single component lipid-HTL-CTL vaccine in transgenic HLA A2.1 mice, fibroblast targets; assay type: in vivo, mouse; conditions: 100 nmoles s.c., no adjuvant
Experimental: as §1, §2

## RPHERNGFTVL (listed as Human cytomegalovirus) [SEQ ID NO: 10]
HLA A or B Allele
  Number of Test Cell Lines (independent cell lines of the same restriction which were sensitized): 5
  HLA A or B Allele Specificity: HLA B7

## EFFWDANDIY (listed as Human cytomegalovirus) [SEQ ID NO: 13]
HLA A or B Allele
  Number of Test Cell Lines (independent cell lines of the same restriction which were sensitized): 2
  HLA A or B Allele Specificity: HLA B*44XX

## FTSQYRIQGKL (listed as Human cytomegalovirus) [SEQ ID NO: 14]
HLA A or B Allele
  Number of Test Cell Lines (independent cell lines of the same restriction which were sensitized): 4
  HLA A or B Allele Specificity: HLA A*2402

## PTFTSQYRIQGKL (listed as Human cytomegalovirus) [SEQ ID NO: 12]
HLA A or B Allele
  Number of Test Cell Lines (independent cell lines of the same restriction which were sensitized): 3
  HLA A or B Allele Specificity: HLA B*3801/2

## TPRVTGGGAM (listed as Human cytomegalovirus) [SEQ ID NO: 7]
HLA A or B Allele
  Number of Test Cell Lines (independent cell lines of the same restriction which were sensitized): 5
  HLA A or B Allele Specificity: HLA B7

## (Pam)2-KSSISQAVHAAHAEINEAAANLVPMVATV (also: two palmitoyl groups on the N-terminal lysine, exact amine positions not given here) [SEQ ID NO:38]
[1]; no adjuvant
  lysis of p53149-157 sensitized targets by spleen cells of immunized mice: ineffective
  lysis of pp65495-503 peptide sensitized targets by spleen cells of immunized mice: effectively lysed
[2]
  lysis of HCMV-infected HLA A*0201 fibroblasts: effectively lysed
  lysis of uninfected or HLA-mismatched fibroblasts: not recognized or lysed

## (Pam)2-KSSAKXVAAWTLKAAANLVPMVATV (KSSAK[Cha]VAAWTLKAAANLVPMVATV; not fully specified (residue 1, N-terminus); printed as (Pam)2-KSSAKXVAAWTLKAAANLVPMVATV; also: (Pam)2- two palmitoyl groups at N-terminal end, attachment not given here) [SEQ ID NO:37]
[1]; 50 nmole, single immunization
  immune response after single immunization: not effective
[1]; 50 nmole, with booster
  immune response after second immunization (booster): detectable immune response
[1]; no adjuvant
  lysis of p53149-157 sensitized targets by spleen cells of immunized mice: ineffective
  lysis of pp65495-503 peptide sensitized targets by spleen cells of immunized mice: effectively lysed
[1]; 100 nmoles s.c., no adjuvant
  relative potency of molecules A and B: more potent of the two
[2]
  lysis of HCMV-infected HLA A*0201 fibroblasts: effectively lysed
  lysis of uninfected or HLA-mismatched fibroblasts: not recognized or lysed

## SVLGPISGHVLK [SEQ ID NO: 11]
HLA A or B Allele
  Number of Test Cell Lines (independent cell lines of the same restriction which were sensitized): 5
  HLA A or B Allele Specificity: HLA A*1101

## FVFPTKDVALR (listed as Human cytomegalovirus) [SEQ ID NO: 5]
HLA A or B Allele
  Number of Test Cell Lines (independent cell lines of the same restriction which were sensitized): 3
  HLA A or B Allele Specificity: HLA A*6801

## FPTKDVAL [SEQ ID NO: 9]
HLA A or B Allele
  Number of Test Cell Lines (independent cell lines of the same restriction which were sensitized): 3
  HLA A or B Allele Specificity: HLA B*3502,

Source: patent US7160685B2, “Diagnostic reagents for human cytomegalovirus and methods of use” (priority 1996, dated 2007)
